Counter-ions that a name gives are not always drawn.
Experiments:
[1] = relative to acyclovir; statement in words; cited from earlier work
[2] = Water content by Karl Fisher titration; assay type: physicochemical; conditions: Example 11 sample
Experimental: The water of hydration content is measured by the Karl Fischer method which is well known in the art and is described in the 1990 US Pharmacopoeia at pages 1619-1621, and the European Pharmacopoeia, second edition (1992) part 2, sixteenth fascicule at v. 3.5-6.1. Water content (by Karl Fisher titration): 0.61% w/w

[3] = Thermogravimetric analysis (TGA); assay type: physicochemical; conditions: from 182-310° C.; scan rate 10° C. per minute
Experimental: Thermogravimetric analysis was carried out on a Perkin-Elmer Pyris-1 TGA system. Scan rate of 10° C. per minute. Sample size 3.757 mg. The TGA trace is provided at FIG. 6.

[4] = Stability and hygroscopicity of the crystal form (stated, no method); assay type: physicochemical; conditions: statement in words

CC(C)[C@H](N)C(=O)OCCOCn1cnc2c(=O)[nH]c(N)nc21 [valaciclovir]
Bioavailability [1]: much improved bioavailability

CC(C)[C@H](N)C(=O)OCCOCn1cnc2c(=O)[nH]c(N)nc21 [Form 2 Valaciclovir Hydrochloride, valaciclovir hydrochloride]
Water content (by Karl Fisher titration) [2]: 0.61 % w/w | Weight loss associated with melting/decomposition [3]: 42.97 % w/w | Hygroscopicity [4]: essentially non-hygroscopic | Stability of the crystal form [4]: stable
